“And” between values parts separate entries of the source, which are not always exact repeats. Equal entries are not always repeated.
Experiments:
VPS34 = VPS34 (Homo sapiens, UniProt Q8NEB9); test: Functional VPS34 cellular assay; type: cell-based
mTOR = mTOR (Homo sapiens, UniProt P42345); test: mTOR inhibition; type: biochemical; conditions: up to 10 μM
PI3Kgamma [1] = target: T1, PI3Kgamma (Mus musculus, UniProt Q9JHG7); test: Inhibition of AKT phosphorylation (pAkt-S473) in RAW 264.7 mouse macrophages after C5a stimulation; type: cell-based; conditions: pAkt-S473, RAW 264.7, C5a; read-out: IC50 on PI3Kgamma in cells
T1 construct: RAW 264.7 mouse macrophages (after stimulation of AKT phosphorylation by C5a) for PI3Kgamma; endogenous in cells; host or cells: RAW 264.7 mouse macrophages

PI3Kβ = PI3Kβ (Homo sapiens, UniProt P42338); test: Inhibition of AKT phosphorylation (pAkt-S473) in MEF-3T3-myr p110β mouse fibroblasts; type: cell-based; conditions: pAkt-S473, MEF-3T3-myr p110β; read-out: IC50 on PI3Kβ in the PI3Kβ-dependent cell line
PI3Kdelta [2] = target: T2, PI3Kdelta (Homo sapiens, UniProt O00329); test: PI3Kdelta biochemical assay; conditions: biochemical assays
PI3Kβ isoform = PI3Kβ isoform (Homo sapiens, UniProt P42338); test: PI3Kβ biochemical assay; conditions: biochemical assays
VPS34 lipid kinase = VPS34 lipid kinase (Homo sapiens, UniProt Q8NEB9); test: Profiling against panel of more than 400 lipid and protein kinases (VPS34); conditions: biochemical
PI3Kgamma [3] = target: PI3Kgamma (Homo sapiens, UniProt P48736); test: PI3Kgamma biochemical assay; conditions: biochemical assays
PI3Kdelta [4] = target: T2, PI3Kdelta; test: Inhibition of AKT phosphorylation (pAkt-S473) in MEF-3T3-myr p110δ mouse fibroblasts; type: cell-based; conditions: pAkt-S473, MEF-3T3-myr p110δ; read-out: IC50 on PI3Kdelta in cells
[5] = system: human melanoma cell line A2058; test: In vitro anti-proliferative activity (CelltiterGlo, ray design) in A2058, example 3; type: cell-based; conditions: for Absolute IC40: A2058, 96 hours, example 3
Description: (I) in combination with the BRAF inhibitor compound (II), experiments were conducted using human melanoma cell line A2058 (BRAF mutant, PTEN-deficient and unsensitive to said BRAF inhibitor).
The human melanoma A2058 cell line was purchased at ATCC (Ref number CRL-11147 Batch 5074651). The A2058 cells were cultured in DMEM High glucose medium supplemented with 10% FBS and 2 mM L-Glutamine.
Compounds (I) and (II) dilutions were prepared according to the material and methods of example 1. The final concentrations tested were defined by Ray design method described below. The DMSO concentration was 0.1% in controls and in all treated wells.
A ray design was used allowing the characterization of the interaction of the two compounds for several fixed proportion in the mixture. The ray design includes one ray for each single agent and 19 combination rays.
(§1) A2058 cells were plated at 4,000 cells/well in 384-well plates in appropriate culture medium and incubated for 6 hours at 37° C., 5% CO2. […] Cell growth was evaluated by measuring intracellular ATP using CelltiterGlo® reagent (Promega) according to the manufacturer's protocol. Briefly, CellTiterGlo® was added to each plate, incubated for 1 hour then luminescent signal was read on the MicroBeta Luminescent plate reader.
Four experiments have been performed on this cell line. For each experiment, two 384-well plates were used allowing working with duplicates for combination rays and with quadruplicates for single agent rays.
Inhibition of cell growth was estimated after treatment with single compounds or combination of compounds for four days and comparing the signal to cells treated with vehicle (DMSO) and following equation described in example 1.
These measurements allow determining the potential synergistic combinations in using the statistical method described in example 1.

BRAF mutated melanoma = conditions: phase I trial; cited from earlier work
[6] = system: human melanoma cell line WM-266-4; test: In vitro anti-proliferative activity (CelltiterGlo, ray design) in WM-266-4, example 1; type: cell-based
Description: Prior to in vitro combination studies, the activity of individual agents was investigated using WM-266-4 cell line. The purpose of testing individual agents was to determine the independence of their action and to determine the dilution design of the Fixed Ratio Drug Combination assay.
The human melanoma WM-266-4 cell line was purchased at ATCC (Ref number CRL-1676 Batch 3272826). The WM-266-4 cells were cultured in RPMI1640 medium supplemented with 10% FBS and 2 mM L-Glutamine.
They were diluted serially, in DMSO following a 3 or 3.3-fold dilution step in order to obtain 10 mM to 0.03 μM solutions: then each solution was diluted 50-fold in culture medium containing 10% serum before being added onto cells with a 20-fold dilution factor. The final concentrations tested were defined by a Ray design which allows characterizing the interaction of the two compounds for several fixed proportions in the mixture. The ray design used for this experiment includes one ray for each single agent and 4 combination rays. All rays have 10 concentrations (see Table 1). The DMSO concentration was 0.1% in controls and in all treated wells.
as §1, with “WM-266-4” for “A2058”, “2500” for “4,000”, “96-well” for “384-well”, “reader. Three experiments have been performed on the cell line. For each experiment, two 96-well plates are used allowing working with duplicates.” for “reader.”
Inhibition of cell growth was estimated after treatment with one compound or the combination of compounds for four days and comparing the signal to cells treated with vehicle (DMSO).
Growth inhibition percentage (GI %) was calculated according to the following equation:
GI %=100*(1−((X−BG)/(TC−BG)) […]

T1 sequence (Q9JHG7 whole entry): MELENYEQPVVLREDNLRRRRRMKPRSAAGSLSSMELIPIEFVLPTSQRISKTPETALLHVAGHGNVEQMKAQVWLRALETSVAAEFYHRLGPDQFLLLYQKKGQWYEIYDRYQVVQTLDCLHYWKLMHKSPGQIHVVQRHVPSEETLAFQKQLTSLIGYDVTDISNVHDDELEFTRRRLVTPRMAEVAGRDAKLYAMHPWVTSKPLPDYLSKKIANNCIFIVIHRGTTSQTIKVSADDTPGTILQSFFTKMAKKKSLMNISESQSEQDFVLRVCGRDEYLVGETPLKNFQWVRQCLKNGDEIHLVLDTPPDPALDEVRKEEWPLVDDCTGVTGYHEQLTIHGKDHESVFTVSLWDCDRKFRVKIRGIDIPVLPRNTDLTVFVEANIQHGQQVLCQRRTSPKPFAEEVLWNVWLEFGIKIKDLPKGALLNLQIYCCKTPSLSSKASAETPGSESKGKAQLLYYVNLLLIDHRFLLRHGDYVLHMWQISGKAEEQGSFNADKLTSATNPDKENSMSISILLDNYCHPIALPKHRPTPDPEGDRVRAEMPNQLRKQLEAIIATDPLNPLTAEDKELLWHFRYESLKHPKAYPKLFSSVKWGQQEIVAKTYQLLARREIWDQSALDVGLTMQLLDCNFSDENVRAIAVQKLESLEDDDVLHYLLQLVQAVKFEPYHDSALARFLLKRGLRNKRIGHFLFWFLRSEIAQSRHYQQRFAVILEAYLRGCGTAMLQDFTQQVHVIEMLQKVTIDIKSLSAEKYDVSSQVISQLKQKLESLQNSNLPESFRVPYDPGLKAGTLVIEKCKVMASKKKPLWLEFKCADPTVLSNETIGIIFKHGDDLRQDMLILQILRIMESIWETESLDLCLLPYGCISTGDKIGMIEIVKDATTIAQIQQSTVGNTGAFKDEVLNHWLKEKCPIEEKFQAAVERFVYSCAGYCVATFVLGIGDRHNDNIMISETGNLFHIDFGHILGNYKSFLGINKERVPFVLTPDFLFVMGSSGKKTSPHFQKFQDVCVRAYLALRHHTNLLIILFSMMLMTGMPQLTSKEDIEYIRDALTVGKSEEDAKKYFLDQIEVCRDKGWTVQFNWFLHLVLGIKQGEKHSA
Sequence of PI3Kβ (P42338 whole entry, species assumed): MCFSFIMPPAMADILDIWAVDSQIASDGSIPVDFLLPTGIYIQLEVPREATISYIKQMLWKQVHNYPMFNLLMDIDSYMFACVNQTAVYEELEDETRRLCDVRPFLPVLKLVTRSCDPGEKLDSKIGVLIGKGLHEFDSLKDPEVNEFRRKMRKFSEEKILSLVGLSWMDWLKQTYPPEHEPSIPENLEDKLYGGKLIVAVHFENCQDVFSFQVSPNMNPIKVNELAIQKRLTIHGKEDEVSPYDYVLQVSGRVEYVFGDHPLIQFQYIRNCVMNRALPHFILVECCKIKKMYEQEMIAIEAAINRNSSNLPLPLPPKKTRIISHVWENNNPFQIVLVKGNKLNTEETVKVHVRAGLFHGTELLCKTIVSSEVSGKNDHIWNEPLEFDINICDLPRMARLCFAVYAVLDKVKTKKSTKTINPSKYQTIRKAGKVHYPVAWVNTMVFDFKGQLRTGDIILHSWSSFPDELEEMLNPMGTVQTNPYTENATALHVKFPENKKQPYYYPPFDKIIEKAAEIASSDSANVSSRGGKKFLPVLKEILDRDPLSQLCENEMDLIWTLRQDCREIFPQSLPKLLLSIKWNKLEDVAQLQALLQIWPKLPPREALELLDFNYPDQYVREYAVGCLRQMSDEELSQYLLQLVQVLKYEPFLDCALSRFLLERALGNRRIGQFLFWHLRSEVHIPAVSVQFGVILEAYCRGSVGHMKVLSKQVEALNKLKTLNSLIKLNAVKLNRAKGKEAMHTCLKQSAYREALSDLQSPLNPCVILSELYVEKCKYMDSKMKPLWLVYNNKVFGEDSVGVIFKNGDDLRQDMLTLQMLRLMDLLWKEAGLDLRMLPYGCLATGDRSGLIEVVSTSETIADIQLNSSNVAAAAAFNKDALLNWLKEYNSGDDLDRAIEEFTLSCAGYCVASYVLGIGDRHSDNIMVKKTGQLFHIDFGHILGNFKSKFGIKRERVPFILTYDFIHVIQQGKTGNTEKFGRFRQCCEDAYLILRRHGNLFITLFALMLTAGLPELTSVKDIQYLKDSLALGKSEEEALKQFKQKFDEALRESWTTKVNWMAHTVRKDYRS
Sequence of PI3Kβ (P26450 whole entry partner, species assumed): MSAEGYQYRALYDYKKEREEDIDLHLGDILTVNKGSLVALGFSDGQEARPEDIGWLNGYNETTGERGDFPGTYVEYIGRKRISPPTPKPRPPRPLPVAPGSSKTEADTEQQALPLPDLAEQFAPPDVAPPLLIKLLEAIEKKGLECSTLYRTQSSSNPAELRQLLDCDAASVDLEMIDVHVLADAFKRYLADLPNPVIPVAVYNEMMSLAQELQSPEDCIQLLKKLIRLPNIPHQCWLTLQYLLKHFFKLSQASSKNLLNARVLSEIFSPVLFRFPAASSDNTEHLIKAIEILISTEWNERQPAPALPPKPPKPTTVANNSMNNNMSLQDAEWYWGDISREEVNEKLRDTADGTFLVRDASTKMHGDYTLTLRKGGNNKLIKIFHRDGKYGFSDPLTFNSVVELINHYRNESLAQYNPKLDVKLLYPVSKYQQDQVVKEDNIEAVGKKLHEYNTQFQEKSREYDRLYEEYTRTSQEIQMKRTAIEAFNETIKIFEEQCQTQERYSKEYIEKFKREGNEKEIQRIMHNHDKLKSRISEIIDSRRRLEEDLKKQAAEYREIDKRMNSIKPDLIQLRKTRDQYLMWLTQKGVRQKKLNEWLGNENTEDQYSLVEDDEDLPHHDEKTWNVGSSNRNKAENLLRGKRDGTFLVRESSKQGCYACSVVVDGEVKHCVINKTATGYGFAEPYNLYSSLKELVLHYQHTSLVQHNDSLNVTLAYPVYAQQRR
Sequence of PI3Kβ isoform (P42338 whole entry, canonical isoform): as the sequence (P42338 whole entry, species assumed) above
Sequence of PI3Kβ isoform (P27986 whole entry partner, canonical isoform): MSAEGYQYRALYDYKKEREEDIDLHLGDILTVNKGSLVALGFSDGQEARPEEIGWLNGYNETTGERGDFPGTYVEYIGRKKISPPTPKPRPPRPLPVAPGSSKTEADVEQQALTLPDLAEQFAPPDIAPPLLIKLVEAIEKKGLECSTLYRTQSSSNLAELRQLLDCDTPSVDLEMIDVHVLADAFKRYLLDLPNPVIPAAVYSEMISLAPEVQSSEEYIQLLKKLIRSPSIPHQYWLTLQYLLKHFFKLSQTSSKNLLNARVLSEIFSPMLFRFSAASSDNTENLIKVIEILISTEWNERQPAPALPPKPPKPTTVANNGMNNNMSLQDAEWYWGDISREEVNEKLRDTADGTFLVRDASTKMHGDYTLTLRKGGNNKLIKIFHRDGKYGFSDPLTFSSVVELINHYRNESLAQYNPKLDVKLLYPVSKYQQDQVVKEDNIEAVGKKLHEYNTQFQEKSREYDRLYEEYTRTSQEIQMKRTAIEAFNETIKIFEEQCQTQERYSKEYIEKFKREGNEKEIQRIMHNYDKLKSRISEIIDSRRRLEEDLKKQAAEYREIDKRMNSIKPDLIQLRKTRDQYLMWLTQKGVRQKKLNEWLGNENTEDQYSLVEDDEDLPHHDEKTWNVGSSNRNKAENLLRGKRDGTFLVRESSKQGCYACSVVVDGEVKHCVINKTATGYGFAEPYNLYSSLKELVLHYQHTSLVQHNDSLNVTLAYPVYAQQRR
Sequence of VPS34 lipid kinase (Q8NEB9 whole entry): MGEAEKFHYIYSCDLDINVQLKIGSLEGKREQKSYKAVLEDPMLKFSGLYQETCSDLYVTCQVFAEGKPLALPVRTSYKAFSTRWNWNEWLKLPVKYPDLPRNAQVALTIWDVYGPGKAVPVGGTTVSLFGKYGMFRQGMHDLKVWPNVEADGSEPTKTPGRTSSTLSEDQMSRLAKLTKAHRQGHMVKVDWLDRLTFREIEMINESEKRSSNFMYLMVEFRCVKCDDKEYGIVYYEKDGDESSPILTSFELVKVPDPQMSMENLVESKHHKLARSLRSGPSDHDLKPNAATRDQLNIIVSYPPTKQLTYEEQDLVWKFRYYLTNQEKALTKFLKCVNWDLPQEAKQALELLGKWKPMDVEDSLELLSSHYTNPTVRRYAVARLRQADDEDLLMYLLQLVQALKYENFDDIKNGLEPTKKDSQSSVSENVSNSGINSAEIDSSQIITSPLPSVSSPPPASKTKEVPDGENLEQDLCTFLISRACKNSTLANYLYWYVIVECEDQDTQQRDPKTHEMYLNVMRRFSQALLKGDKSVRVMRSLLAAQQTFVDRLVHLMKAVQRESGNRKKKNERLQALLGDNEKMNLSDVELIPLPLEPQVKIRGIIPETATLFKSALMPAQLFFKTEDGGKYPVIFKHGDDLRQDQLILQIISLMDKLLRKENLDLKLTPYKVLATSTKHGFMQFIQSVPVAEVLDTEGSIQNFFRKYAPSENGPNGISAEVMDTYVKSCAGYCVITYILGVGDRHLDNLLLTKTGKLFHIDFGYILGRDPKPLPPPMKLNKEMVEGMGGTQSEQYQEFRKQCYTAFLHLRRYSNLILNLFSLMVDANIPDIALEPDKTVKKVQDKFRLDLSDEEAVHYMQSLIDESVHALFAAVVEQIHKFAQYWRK
Sequence of VPS34 (Q8NEB9 whole entry, species assumed): as the sequence (Q8NEB9 whole entry) above

Row | IC50 ([6]; Homo sapiens, WM 266-4, approximately, read-out: IC50 with WM-266-4 sensitive cancer cells) [nM] | IC50 ([5]; Homo sapiens, A2058, approximately, read-out: IC50 with A2058 unsensitive cancer cells) [nM] | Compound | IC50 (VPS34) [nM] | mTOR inhibition (mTOR) | IC50 (PI3Kgamma [1]) [nM] | IC50 (PI3Kβ) [nM] | IC50 (PI3Kdelta [2]) [nM] | IC50 (PI3Kβ isoform) [nM] | IC50 (VPS34 lipid kinase) [nM] | IC50 (PI3Kgamma [3]) [nM] | IC50 (PI3Kdelta [4]) [nM] | Absolute IC40 ([5]; single agent) | patients with at least 30% tumor shrinkage by RECIST (BRAF mutated melanoma) [%] | Absolute IC40s ([6]; single agent, WM-266-4, 96 hours, example 1) | IC40, antiproliferative effect, WM-266-4 ([6]; single agent, approximately) [nM] | IC40, antiproliferative effect, A2058 ([5]; single agent, approximately)
1 |  |  | C[C@H]1Cc2ccccc2N1C(=O)Cc1nc(N2CCOCC2)cc(=O)[nH]1 [Compound (I), 2-{2-[(2S)-2-methyl-2,3-dihydro-1H-indol-1-yl]-2-oxoethyl}-6-(morpholin-4-yl)pyrimidin-4(3H)-one] | > 10000 | not inhibit mTOR | > 3000 | 32 | 465 | 65 | 180 | > 10000 | 823 | 11,500 nM |  |  |  | 
2 | ~84 | ~4200 | CCCS(=O)(=O)Nc1ccc(F)c(C(=O)c2c[nH]c3ncc(-c4ccc(Cl)cc4)cc23)c1F [Compound (II), 1-Propanesulfonamide,N-[3-[[5-(4-chlorophenyl)-1H-pyrrolo[2,3-b]pyridin-3-yl]carbonyl]-2,4-difluorophenyl]] |  |  |  |  |  |  |  |  |  | 1,890 nM | 81 | 35 nM and 34.9 nM | ~60 | ~1,200 nM

— patent publication US20160030438A1, “ANTI-TUMORAL COMPOSITION COMPRISING A PI3KBETA INHIBITOR AND A RAF INHIBITOR, TO OVERCOME CANCER CELLS RESISTANCE” (SANOFI, priority 2013, published 2016)
